{"source": "patent US9539341B2", "about": "“Methods and compositions for targeting adipose cells in mammals” (Board of Regents, the University of Texas System, priority 2011, dated 2017)", "key": {"[1]": {"system": "cells from the kidney or peripheral blood", "experiment": "In vivo apoptosis in non-target tissues, APO-TRACE and flow cytometry", "design": "species or system mice", "settings": "2 mg injected, 48 hrs", "excerpt": "FIG. 15 illustrates that apoptosis induced by treatment with cytotoxic WAT7-KLAKLAK2 (SEQ ID NO:13-SEQ ID NO:31) all-D-peptide was limited to target tissue. APO-TRACE reagent (Sigma) and flow cytometry were used to detect apoptosis induction in both subcutaneous and intraperitoneal WAT cells, but not in cells from the kidney or peripheral blood.\n(§1) In some embodiments targeting peptides selective for angiogenic vasculature in adipose tissue could be used to treat obesity associated disorders, for example for weight reduction or for preventing weight gain. […] Because brown adipose tissue more vascularized, a vasculature based targeting approach would be very effective for delivery of therapeutic reagents to BAT for activation of this tissue.\n(§2) This reduction was due to the targeted depletion of ASC through apoptotic cell death as evidenced at 48 hrs after injection (see FIG. 14)."}, "[2]": {"experiment": "Maximal tolerable dose (MTD) with increasing peptide doses", "type": "in vivo, mice", "excerpt": "as §1\nWhen the therapeutic treatment of adipose associated body composition or body weight disorders such as obesity, lypodystrophy, diabetes or metabolic syndrome, fibrosis and cancer is contemplated, the appropriate dosage may also be determined using animal studies to determine the maximal tolerable dose, or MTD, of a bioactive agent per kilogram weight of the test subject. In general, at least one animal species tested is mammalian. Those skilled in the art regularly extrapolate doses for efficacy and avoiding toxicity to other species, including human. Before human studies of efficacy are undertaken, Phase I clinical studies help establish safe doses.\nas §2"}, "[3]": {"system": "CD34+CD31−CD45− cells (MSC) from WAT", "experiment": "Synchronous in vivo phage display biopanning, clones recovered from WAT MSC (ASC)", "design": "species or system mouse", "settings": "percent of sequenced phage clones carrying the insert in WAT after 4 rounds of synchronous in vivo biopanning on CD34+CD31−CD45− cells", "excerpt": "(§3) Phage Library Screening: Random peptide libraries based on the M13-derived bacteriophage vector fUSE5 displaying inserts CX7C, CX8C, and CX9C on the pIII protein were admixed (1:1:1) to the combined 10^10 TU of mixed library for the screen performed based on the synchronous biopanning in vivo upon tail vein injection (see for example, US20050074747 and Arap, et al., Nat. Med. 8:121-127, 2002; Kolonin, et al., FASEB J. 20: 979-981, 2006).\n(§4) For competitive homing experiment, 5×10^9 TU for each of the 11 chosen phage clones were admixed and the combined 5.5×10^10 TU was injected. For validation of individual clones, 1×10^10 TU for each phage clones was injected. After 1 hr of circulation and heart perfusion with 10 ml of phosphate buffer saline (PBS), WAT, tibia/femurs, bone-associated skeletal muscle, and lungs were collected. Bone marrow was isolated by flushing tibia/femurs. Hematopoietic and endothelial cells were depleted from cell suspensions of each organ by Dynabeads (Invitrogen) coated with anti-TER119, anti-CD31, and anti-CD45 antibodies (BD Biosciences), after which the remaining cells were processed by FACS to purify CD34+CD31−CD45− cells. Bound phage were recovered by infecting K91 E. coli, quantified by phage transforming unit (TU) counting, and processed for sequencing of the peptide-coding DNA as described in Arap, et al. 2002, ibid and Kolonin, et al., 2006, ibid. For identification of conserved peptide motifs, ClustalW2 software was used.\n(§5) Methods for isolation of MSC by fluorescence-activated cell sorting (FACS) from organ cell suspensions based on the C34+CD31−CD45− immunophenotype (FIG. 8B) were combined with phage display and optimized for ASC. By adapting the previously described “synchronous in vivo biopanning” method of (Kolonin et al., 2006, ibid), a mixture of cyclic CX7C, CX8C, and CX9C (C: disulfide-bonded cysteines; X: any amino acid) random peptide libraries was screened (FIG. 1A). This approach made it possible to select MSC probes from the pool of over 10^11 combinatorial peptides. Throughout the screen, progressive enrichment in the number of phage particles recovered on MSC from WAT, as well as from the chosen control organs: lung, bone marrow, and skeletal muscle (FIG. 1B) was observed.\n(§6) After 4 rounds of synchronous in vivo biopanning, eight CX7C and CX8C sequences repeatedly recovered from ASC with frequency above 1% were identified, which were termed WAT1 through WAT8 (see Table 1 below). In parallel, a matched number of peptide inserts homing to lung stromal cells (LSC) were sequenced as a control. None of the WAT-homing peptides were enriched in the lung. Four sequences repeatedly recovered in the lung with frequency above 1%, were termed LU1 through LU4 (see Table 1 below). […] Because the focus of this study is WAT-specific MSC, this clone was excluded from further analysis. Other selected peptides were subjected to an in vivo competition assay in order to identify those with the highest specificity of binding. Equal amounts of phage for the 11 clones displaying peptides WAT1 through WAT7 (SEQ ID NOS: 1-14) and LU1 through LU4 (SEQ ID NOS: 17-24) were admixed and injected into a mouse. Homing specificity of each clone was assessed by quantifying frequency of phage coding for each peptide selected on C34+CD31−CD45− cells isolated from either WAT or lung.\n(§7) Shown in Table 1 above are the percent (%) of the sequenced phage clones that carried the indicated WAT or LU insert present within WAT (% in WAT) or lung (% in LUNG) following 4 rounds of synchronous in vivo biopanning on CD34+CD31−CD45− cells."}, "[4]": {"system": "CD34+CD31−CD45− cells (MSC) from lung", "experiment": "Synchronous in vivo phage display biopanning, clones recovered from lung MSC (LSC)", "design": "species or system mouse", "settings": "percent of sequenced phage clones carrying the insert in lung after 4 rounds of synchronous in vivo biopanning on CD34+CD31−CD45− cells", "excerpt": "as §3, §4, §5, §6, §7"}, "[5]": {"system": "C34+CD31−CD45− cells isolated from WAT", "experiment": "In vivo competition (re-homing) assay of 11 admixed phage clones, WAT", "design": "species or system mouse", "settings": "equal amounts of 11 phage clones mixed and injected; percent of sequenced clones on C34+CD31−CD45− cells from WAT", "description": "as §4, §6"}, "[6]": {"system": "C34+CD31−CD45− cells isolated from lung", "experiment": "In vivo competition (re-homing) assay of 11 admixed phage clones, lung", "design": "species or system mouse", "settings": "equal amounts of 11 phage clones mixed and injected; percent of sequenced clones on C34+CD31−CD45− cells from lung", "description": "as §4, §6"}, "[7]": {"biological_target": "T1, recombinant bacterially-purified full-length core mouse DCN (mDCN) (Mus musculus, UniProt P28654)", "T1 construct": "cloning fragments encoding amino acids 1-354 and 45-354 of mouse DCN cDNA (OriGene); His6; made in house", "T1 sequence (P28654 17-354)": "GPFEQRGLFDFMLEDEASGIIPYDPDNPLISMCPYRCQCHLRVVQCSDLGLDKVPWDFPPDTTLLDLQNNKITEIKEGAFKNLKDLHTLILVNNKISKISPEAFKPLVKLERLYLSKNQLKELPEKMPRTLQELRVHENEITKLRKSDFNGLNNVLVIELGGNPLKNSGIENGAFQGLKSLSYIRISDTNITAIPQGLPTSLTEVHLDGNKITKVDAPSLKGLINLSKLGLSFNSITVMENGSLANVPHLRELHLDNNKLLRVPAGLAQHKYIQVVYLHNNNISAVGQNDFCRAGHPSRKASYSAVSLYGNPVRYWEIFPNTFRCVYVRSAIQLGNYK", "experiment": "ELISA binding assay, recombinant full-length core mouse DCN", "settings": "His6-tagged protein coated at 10 μg/ml", "excerpt": "(§8) Immunoblotting and Binding Assays: Protein preparations resolved on SDS-PAGE were blotted onto Immobilon-FL membrane (Millipore), blocked with Odyssey blocking buffer (Licor Biosciences), and probed (in PBS/0.05% Triton X-100) with goat anti-DCN (R&D Systems, 1:1,000), rabbit anti-ANX2A (Aviva, 1:1,000), rabbit anti-mouse b-actin (Abcam, 1:10,000) antibodies, or pre- and post-immune antisera against WAT7 (1:1,000) as indicated. Signal was detected by Odyssey imaging system using anti-goat IRDye 800CW or anti-rabbit IRDye 680 both from Licor Biosciences. Bovine DCN was from Sigma-Aldrich, NS0-derived murine DCN was from R&D Systems. Murine DCN cDNA was generated from WAT total RNA using SuperScript kit (Invitrogen). For bacterial expression, full-length mouse core DCN and ΔDCN isoforms were produced by cloning fragments encoding amino acids 1-354 and 45-354 of mouse DCN cDNA (OriGene) or of CLIC4 cDNA (OriGene) in-frame with the His6Tag into pET28a vector, respectively. His6-tagged proteins were purified with His-Tag kit (Novagen). […] Bound peptides or FLAG-resistin were probed with corresponding rabbit anti-peptide Genemed antibodies (1:2,000) or rabbit anti-FLAG antibodies (Sigma-Aldrich, 1:2,000) followed by secondary goat anti-rabbit HRP-conjugated antibodies (Millipore, 1:5,000) and signal detection with Ultra-TMB (Pierce) substrate and measurement of absorbance at 450 nm. […]"}, "[8]": {"biological_target": "T2, recombinant bacterially-purified mouse ΔDCN (Mus musculus, UniProt P28654)", "T2 construct": "cloning fragments encoding amino acids 1-354 and 45-354 of mouse DCN cDNA (OriGene); His6; made in house", "T2 sequence (P28654 45-354)": "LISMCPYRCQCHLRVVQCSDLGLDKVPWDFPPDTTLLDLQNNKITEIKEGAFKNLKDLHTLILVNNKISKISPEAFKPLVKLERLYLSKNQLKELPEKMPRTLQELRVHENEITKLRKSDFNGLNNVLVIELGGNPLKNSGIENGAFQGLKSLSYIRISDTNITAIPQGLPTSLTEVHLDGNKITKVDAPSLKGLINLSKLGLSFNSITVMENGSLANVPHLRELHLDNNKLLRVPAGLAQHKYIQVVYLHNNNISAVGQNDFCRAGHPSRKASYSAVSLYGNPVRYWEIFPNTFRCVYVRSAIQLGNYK", "experiment": "ELISA binding assay, ΔDCN", "settings": "His6-tagged protein coated at 10 μg/ml", "excerpt": "as §8"}, "[9]": {"biological_target": "T3, glycosylated bovine DCN (bDCN*) (Bos taurus, UniProt P21793)", "T3 construct": "purchased Sigma-Aldrich", "T3 sequence (P21793 31-360)": "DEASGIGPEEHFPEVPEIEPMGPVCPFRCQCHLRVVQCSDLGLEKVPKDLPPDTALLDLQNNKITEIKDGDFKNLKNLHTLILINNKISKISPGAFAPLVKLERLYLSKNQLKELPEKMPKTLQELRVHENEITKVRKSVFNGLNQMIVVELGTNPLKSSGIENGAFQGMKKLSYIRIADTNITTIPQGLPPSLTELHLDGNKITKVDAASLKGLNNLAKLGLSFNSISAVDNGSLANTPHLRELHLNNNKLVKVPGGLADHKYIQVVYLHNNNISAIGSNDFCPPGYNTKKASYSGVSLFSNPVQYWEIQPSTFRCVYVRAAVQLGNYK", "experiment": "ELISA binding assay, glycosylated bovine DCN", "settings": "compared with BSA background", "excerpt": "as §8"}, "[10]": {"biological_target": "T4, full-length glycosylated mouse DCN (mDCN*) (Mus musculus, UniProt P28654)", "T4 construct": "full-length glycosylated mouse DCN (mDCN*); purchased R&D Systems; host or cells: NS0", "T4 sequence (P28654 31-354)": "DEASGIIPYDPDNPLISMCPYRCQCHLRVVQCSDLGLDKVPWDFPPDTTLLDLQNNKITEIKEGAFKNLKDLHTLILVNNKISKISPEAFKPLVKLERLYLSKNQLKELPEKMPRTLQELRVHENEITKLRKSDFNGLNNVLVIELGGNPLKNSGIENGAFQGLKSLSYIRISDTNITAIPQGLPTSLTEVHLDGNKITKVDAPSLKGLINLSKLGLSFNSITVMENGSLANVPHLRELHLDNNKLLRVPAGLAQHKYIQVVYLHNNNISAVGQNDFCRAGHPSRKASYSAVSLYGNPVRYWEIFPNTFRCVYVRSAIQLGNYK", "experiment": "ELISA binding assay, glycosylated mouse DCN", "settings": "compared with BSA background", "excerpt": "as §8"}}, "note": "Like-named read-outs stand apart in the source and are kept apart here.", "data": [{"molecule": "CC(C)C[C@@H](NC(=O)[C@@H](CCCCN)NC(=O)CCCCCNC(=O)[C@H]1CSSC[C@@H](N)C(=O)N[C@H](CO)C(=O)N[C@H](Cc2c[nH]c3ccccc23)C(=O)N[C@H](CCCCN)C(=O)N[C@H](Cc2ccc(O)cc2)C(=O)N[C@H](Cc2c[nH]c3ccccc23)C(=O)N[C@H](Cc2ccccc2)C(=O)NCC(=O)N[C@H](CCC(=O)O)C(=O)N1)C(=O)N[C@H](C)C(=O)N[C@H](CCCCN)C(=O)N[C@H](CC(C)C)C(=O)N[C@H](C)C(=O)N[C@H](CCCCN)C(=O)N[C@H](CCCCN)C(=O)N[C@H](CC(C)C)C(=O)N[C@H](C)C(=O)N[C@H](CCCCN)C(=O)N[C@H](CC(C)C)C(=O)N[C@H](C)C(=O)N[C@H](CCCCN)C(=O)O", "note": "[WAT7-KLAKLAK2]", "values": [{"measurement": "apoptotic cell death in kidney or peripheral blood", "setting": "[1]", "result": "no apoptotic cell death was identified"}, {"measurement": "MTD", "setting": "[2]", "result": "No MTD was reached"}, {"measurement": "MTD", "setting": "[2]; mouse, in vivo, read-out: MTD", "result": "> 100", "unit": "mg/kg"}]}, {"molecule": "YKNVDSGG [WAT-2, used as control peptide]", "values": [{"measurement": "% in WAT", "setting": "[3]", "result": 2.9, "unit": "%"}, {"measurement": "% in LUNG", "setting": "[4]", "result": 0, "unit": "%"}, {"measurement": "Re-home to WAT (%)", "setting": "[5]", "result": 2.1, "unit": "%"}, {"measurement": "Re-home to Lung (%)", "setting": "[6]", "result": 2.9, "unit": "%"}, {"measurement": "binding to recombinant core mouse DCN (OD450)", "setting": "[7]", "result": "did not display DCN binding"}]}, {"molecule": "Resistin: FLAG-tagged mouse resistin produced in HEK293 cells; WAT-secreted adipokine, ligand of ΔDCN (protein) SSMPLCPIDEAIDKKIKQDFNSLFPNAIKNIGLNCWTVSSRGKLASCPEGTAVLSCSCGSACGSWDIREEKVCHCQCARIDWTAARCCKLQVAS", "values": [{"measurement": "binding to ΔDCN (OD450)", "setting": "[8]", "result": "dose-dependent"}, {"measurement": "binding to glycosylated bovine DCN (OD450)", "setting": "[9]", "result": "completely inefficient in binding"}, {"measurement": "binding to glycosylated mouse DCN (OD450)", "setting": "[10]", "result": "completely inefficient in binding"}]}]}
